Results: patent US20170296545A1, “Composition Of A Ceramic Matrix With A Controlled Release Drug, A Tablet Obtained From The Composition And Methods For Obtaining The Composition And The Tablet” (priority 2009, published 2017)
Read-outs that look alike come from different tables or passages of the source.

Columns and labels:
[1] = cited from earlier work
[2] = system: Wistar rats; conditions: rat, in vivo
Description: In the slices of the liver of the Wistar rats, it was evaluated the presence of hepatic necrosis, proliferation of biliary ducts, proliferation of fibrous conjunctive tissue, and blood extravasation (Cunha, et. al., 2009).

[3] = system: Wistar rats; conditions: rat, in vivo; remark: listed apart in the source
Description: The tests were performed according to Organization for Economic Cooperation and development OECD 423 guide. The methodology consisted of toxicity by evaluating and analyzing of the biochemical and histopathological parameters which resulted from administration thereof.

Molecule | solubility in acid or diluted alkaline solutions ([1]; acid or diluted alkaline solutions) | solubility in alcohol ([1]; alcohol) | solubility in water ([1]; water) | histopathological evaluation of the liver ([2]; 50 mg/kg) | histopathological evaluation of the liver ([2]; 300 mg/kg) | histopathological evaluation of the liver ([2]; 2000 mg/kg) | histopathological evaluation of the livers ([2]; po) | macroscopic tests of the organs ([2]; po) | short-term repeated-dose toxicity [3]
Nc1nc2c(ncn2COCCO)c(=O)[nH]1 [acyclovir] | only slight soluble | insoluble | poorly soluble | – | – | – | – | – | –
pseudoboehmite | – | – | – | tissue integrity | a sinusoidal congestion was detected | tissue integrity | there were not observed any changes in the tissue integrity or apparent injuries | No abnormal changes | low
